The text below walks through data of US10800754B2, “Heterocyclic amide compound” (TAKEDA PHARMACEUTICAL COMPANY LIMITED, priority 2016, dated 2020).

Assay [1] deals with human ovarian cancer cell A2780. Nature of the assay: proliferation inhibitory activity against A2780 cells (CellTiter-Glo). It counts as cell-based. The note with it: A2780, 72 h, 1 μM test compound, 3 days of culture, read-out: proliferation inhibitory rate (%) of A2780 cells. The procedure: The proliferation inhibitory activity of the compound of the present invention against human ovarian cancer cell A2780 was evaluated by the following method.
Human ovarian cancer cells A2780 were seeded in a 384 well culture plate at 1000 cells in 30 μL of medium per well by using RPMI-1640 medium (Wako Pure Chemical Industries, Ltd.) containing 10% fetal bovine serum and penicillin/streptomycin. The next day, 10 μL of RPMI-1640 medium containing the test compound was added to the cells. After 3 days of culture, 20 μL of CellTiter-Glo Luminescent Cell Viability Assay solution (Promega, Fitchburg, Wis., US) was added. The luminescence signal was measured using EnVision (PerkinElmer, Waltham, Mass., US) and the inhibitory rate (%) of the test compound was calculated with a well free of seeding of cell as 100% inhibition.
(In ATP-based viability assays light output follows the ATP content of the culture.)

Another assay has as its target T1, human PRS protein (Homo sapiens, UniProt P07814).
T1 construct: to construct His-Avi-hEPRS (998-1512) expression plasmid; His tag (N); Avi tag (N); TEV cleavage site (ENLYFQ/GS, encoded by forward primer hEPRS-TEV-NheF) (N); made in house; host or cells: E. coli BL21(DE3)
T1 sequence (P07814 998-1512): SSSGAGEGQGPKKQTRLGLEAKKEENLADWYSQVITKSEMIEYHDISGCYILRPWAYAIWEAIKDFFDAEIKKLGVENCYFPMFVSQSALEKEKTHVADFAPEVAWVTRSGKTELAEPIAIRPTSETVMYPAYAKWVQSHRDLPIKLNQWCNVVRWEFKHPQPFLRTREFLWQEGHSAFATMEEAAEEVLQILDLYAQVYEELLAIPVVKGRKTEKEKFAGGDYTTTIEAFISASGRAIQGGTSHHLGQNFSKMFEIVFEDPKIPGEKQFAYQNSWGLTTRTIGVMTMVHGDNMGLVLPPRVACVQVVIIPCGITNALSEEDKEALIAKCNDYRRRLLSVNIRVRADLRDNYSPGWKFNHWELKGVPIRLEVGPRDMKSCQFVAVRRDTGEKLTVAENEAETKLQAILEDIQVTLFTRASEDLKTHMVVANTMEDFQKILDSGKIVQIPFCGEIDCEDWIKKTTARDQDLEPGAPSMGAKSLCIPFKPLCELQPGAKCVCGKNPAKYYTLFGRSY
Nature of the assay: PRS inhibitory activity (ATP/[32P]pyrophosphate exchange enzyme reaction). It counts as biochemical. The note with it: 300 nM test compound; recombinant human PRS (EPRS 998-1512); read-out: inhibitory rate (%) of PRS. Put shortly: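 His-Avi-tagged human EPRS catalytic domain (998-1512), E. coli-expressed, was preincubated 60 min with compound (enzyme added as 40 nM solution) in Tris pH 7.5, KCl, DTT, Tween 20 and MgCl2. The substrate solution contained 300 μM ATP, 160 μM L-proline, and 400 μM pyrophosphate with [32P]pyrophosphate; reaction ran 30 min at room temperature. Charcoal-captured label was counted, with enzyme-free wells taken as 100% inhibition.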

As to `COCCn1cc(-c2cccc(CC(=O)Nc3cc(N4CC[C@@](C#N)(C5CC5)C4=O)ccn3)c2)cn1` [Example 70, N-(4-((3S)-3-cyano-3-cyclopropyl-2-oxopyrrolidin-1-yl)pyridin-2-yl)-2-(3-(1-(2-methoxyethyl)-1H-pyrazol-4-yl)phenyl)acetamide], in assay [1], the inhibition at 1 µM came out at 58%. Moreover, the inhibition at 0.3 µM on human PRS protein is 99%.
As for `N#CCCCn1cc(-c2cccc(CC(=O)Nc3cc(N4CC[C@@](C#N)(C5CC5)C4=O)ccn3)c2)cn1` [Example 71, N-(4-((3S)-3-cyano-3-cyclopropyl-2-oxopyrrolidin-1-yl)pyridin-2-yl)-2-(3-(1-(3-cyanopropyl)-1H-pyrazol-4-yl)phenyl)acetamide], in assay [1], the inhibition at 1 µM was found to be 69%. In addition, the inhibition at 0.3 µM at human PRS protein was 99%.
For the compound `N#C[C@@]1(C2CC2)CCN(c2ccnc(NC(=O)Cc3cccc(-c4cnn(CC5CCC5)c4)c3)c2)C1=O` [Example 72, N-(4-((3S)-3-cyano-3-cyclopropyl-2-oxopyrrolidin-1-yl)pyridin-2-yl)-2-(3-(1-(cyclobutylmethyl)-1H-pyrazol-4-yl)phenyl)acetamide], the inhibition at 1 µM in assay [1] came to 65%. The inhibition at 0.3 µM on human PRS protein worked out at 98%.
For the compound `COCCCn1cc(-c2cccc(CC(=O)Nc3cc(N4CC[C@@](C#N)(C5CC5)C4=O)ccn3)c2)cn1` [Example 74, N-(4-((3S)-3-cyano-3-cyclopropyl-2-oxopyrrolidin-1-yl)pyridin-2-yl)-2-(3-(1-(3-methoxypropyl)-1H-pyrazol-4-yl)phenyl)acetamide], in assay [1], the inhibition at 1 µM worked out at 62%. In addition, the inhibition at 0.3 µM at human PRS protein was found to be 98%.
As for `CC1(Cn2cc(-c3cccc(CC(=O)Nc4cc(N5CC[C@@](C#N)(C6CC6)C5=O)ccn4)c3)cn2)COC1` [Example 77, N-(4-((3S)-3-cyano-3-cyclopropyl-2-oxopyrrolidin-1-yl)pyridin-2-yl)-2-(3-(1-((3-methyloxetan-3-yl)methyl)-1H-pyrazol-4-yl)phenyl)acetamide], in assay [1], the inhibition at 1 µM was 63%. For the same compound, the inhibition at 0.3 µM on human PRS protein was 98%.
Regarding `N#C[C@@]1(C2CC2)CCN(c2ccnc(NC(=O)Cc3cccc(-c4cnn(CC5CC5(F)F)c4)c3)c2)C1=O` (stereo partly drawn) [Example 78, N-(4-((3S)-3-cyano-3-cyclopropyl-2-oxopyrrolidin-1-yl)pyridin-2-yl)-2-(3-(1-((2,2-difluorocyclopropyl)-methyl)-1H-pyrazol-4-yl)phenyl)acetamide], the inhibition at 1 µM in assay [1] was 80%. For the same compound, the inhibition at 0.3 µM at human PRS protein is 100%.
Take `N#C[C@@]1(C2CC2)CCN(c2ccnc(NC(=O)Cc3cccc(-c4cnn(Cc5ccccc5)c4)c3)c2)C1=O` [Example 79, 2-(3-(1-benzyl-1H-pyrazol-4-yl)phenyl)-N-(4-((3S)-3-cyano-3-cyclopropyl-2-oxopyrrolidin-1-yl)pyridin-2-yl)acetamide]: the inhibition at 1 µM in assay [1] is 65%. For the same compound, the inhibition at 0.3 µM on human PRS protein is 100%.
For `N#C[C@@]1(C2CC2)CCN(c2ccnc(NC(=O)Cc3cccc(-c4cnn(CC5CCCCO5)c4)c3)c2)C1=O` (stereo partly drawn) [Example 83, N-(4-((3S)-3-cyano-3-cyclopropyl-2-oxopyrrolidin-1-yl)pyridin-2-yl)-2-(3-(1-(tetrahydro-2H-pyran-2-ylmethyl)-1H-pyrazol-4-yl)phenyl)acetamide] the same measures were 58% and 99%.
For `N#C[C@@]1(C2CC2)CCN(c2ccnc(NC(=O)Cc3cccc(-c4cnn(CC5CCOCC5)c4)c3)c2)C1=O` [Example 84, N-(4-((3S)-3-cyano-3-cyclopropyl-2-oxopyrrolidin-1-yl)pyridin-2-yl)-2-(3-(1-(tetrahydro-2H-pyran-4-ylmethyl)-1H-pyrazol-4-yl)phenyl)acetamide] the same measures were 55% and 97%.
Turning to `N#C[C@@]1(C2CC2)CCN(c2ccnc(NC(=O)Cc3cccc(-c4cnn(CC5COCCO5)c4)c3)c2)C1=O` (stereo partly drawn) [Example 85, N-(4-((3S)-3-cyano-3-cyclopropyl-2-oxopyrrolidin-1-yl)pyridin-2-yl)-2-(3-(1-(1,4-dioxan-2-ylmethyl)-1H-pyrazol-4-yl)phenyl)acetamide], in assay [1], the inhibition at 1 µM turned out to be 54%. Further, the inhibition at 0.3 µM on human PRS protein is 99%.
In the case of `N#C[C@@]1(C2CC2)CCN(c2ccnc(NC(=O)Cc3cccc(-c4cnn(CC5CC(F)(F)C5)c4)c3)c2)C1=O` [Example 87, N-(4-((3S)-3-cyano-3-cyclopropyl-2-oxopyrrolidin-1-yl)pyridin-2-yl)-2-(3-(1-((3,3-difluorocyclobutyl)-methyl)-1H-pyrazol-4-yl)phenyl)acetamide], in assay [1], the inhibition at 1 µM was determined as 74%. On human PRS protein, the inhibition at 0.3 µM turned out to be 100%.
On the same counts, the results for `N#C[C@@]1(C2CC2)CCN(c2ccnc(NC(=O)Cc3cccc(-c4cnn(CCCC(F)(F)F)c4)c3)c2)C1=O` [Example 90, N-(4-((3S)-3-cyano-3-cyclopropyl-2-oxopyrrolidin-1-yl)pyridin-2-yl)-2-(3-(1-(4,4,4-trifluorobutyl)-1H-pyrazol-4-yl)phenyl)acetamide] are 61% and 98%.
For `CC(C)n1cc(-c2cccc(CC(=O)Nc3cc(N4CC[C@@](C#N)(C5CC5)C4=O)ccn3)c2)cn1` [Example 93, N-(4-((3S)-3-cyano-3-cyclopropyl-2-oxopyrrolidin-1-yl)pyridin-2-yl)-2-(3-(1-isopropyl-1H-pyrazol-4-yl)phenyl)acetamide] the same measures were 76% and 100%.
Turning to `N#C[C@@]1(C2CC2)CCN(c2ccnc(NC(=O)Cc3cccc(-c4cnn(C5CCOC5)c4)c3)c2)C1=O` (stereo partly drawn) [Example 94, N-(4-((3S)-3-cyano-3-cyclopropyl-2-oxopyrrolidin-1-yl)pyridin-2-yl)-2-(3-(1-(tetrahydrofuran-3-yl)-1H-pyrazol-4-yl)phenyl)acetamide], the inhibition at 1 µM in assay [1] was 74%. Besides, the inhibition at 0.3 µM at human PRS protein is 100%.
For the compound `N#C[C@@]1(C2CC2)CCN(c2ccnc(NC(=O)Cc3cccc(-c4cnn(CC(F)(F)C(F)F)c4)c3)c2)C1=O` [Example 95, N-(4-((3S)-3-cyano-3-cyclopropyl-2-oxopyrrolidin-1-yl)pyridin-2-yl)-2-(3-(1-(2,2,3,3-tetrafluoropropyl)-1H-pyrazol-4-yl)phenyl)acetamide], the inhibition at 1 µM in assay [1] was 70%. Besides, at human PRS protein, the inhibition at 0.3 µM was found to be 99%.
For `Cn1cc(-c2cc(F)cc(CC(=O)Nc3cc(N4CC[C@@](C#N)(C5CC5)C4=O)cc(Br)n3)c2)cn1` [Example 97, N-(6-bromo-4-((3S)-3-cyano-3-cyclopropyl-2-oxopyrrolidin-1-yl)pyridin-2-yl)-2-(3-fluoro-5-(1-methyl-1H-pyrazol-4-yl)phenyl)acetamide] the same measures were 97% and 100%.
On the same counts, the results for `Cc1cc(N2CC[C@@](C#N)(C3CC3)C2=O)cc(NC(=O)Cc2cccc(-c3cnn(C)c3C)c2)n1` [Example 98, N-(4-((3S)-3-cyano-3-cyclopropyl-2-oxopyrrolidin-1-yl)-6-methylpyridin-2-yl)-2-(3-(1,5-dimethyl-1H-pyrazol-4-yl)phenyl)acetamide] are 69% and 98%.
On the same counts, the results for `CCc1cc(N2CC[C@@](C#N)(C3CC3)C2=O)cc(NC(=O)Cc2cc(F)cc(-c3cnn(C)c3)c2)n1` [Example 99, N-(4-((3S)-3-cyano-3-cyclopropyl-2-oxopyrrolidin-1-yl)-6-ethylpyridin-2-yl)-2-(3-fluoro-5-(1-methyl-1H-pyrazol-4-yl)phenyl)acetamide] are 70% and 99%.
`CC(C)(O)CCn1cc(-c2cccc(CC(=O)Nc3cc(N4CC[C@@](C#N)(C5CC5)C4=O)ccn3)c2)cn1` [Example 100, N-(4-((3S)-3-cyano-3-cyclopropyl-2-oxopyrrolidin-1-yl)pyridin-2-yl)-2-(3-(1-(3-hydroxy-3-methylbutyl)-1H-pyrazol-4-yl)phenyl)acetamide]: the inhibition at 1 µM in assay [1] came to 84%. Moreover, the inhibition at 0.3 µM on human PRS protein worked out at 101%.
